Reference: patent publication US11028088B2, “Modulators of BTK proteolysis and methods of use” (Yale University, priority 2018, dated 2021)
“Also recorded” adds a separate entry of the source.

What was measured:
BTK = BTK (Homo sapiens, UniProt Q06187); assay: BTK degradation in NAMALWA cells (immunoblot); format: cell-based; design: host or cells: NAMALWA; conditions: NAMALWA cells
Summary of the method: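 NAMALWA cells were cultured at 37° C in 5% CO2, and lysates were clarified and normalised for total protein by BCA. BTK was detected by immunoblot with primary antibodies at 1:1,000 and HRP secondaries at 1:10,000, using ECL chemiluminescence and densitometric band quantification.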

ITK = target: T1, ITK (Homo sapiens, UniProt Q08881); assay: KINOMEscan competition binding assay, ITK; design: purchased DiscoverX (KINOMEscan service); conditions: read-out: KINOMEscan percentage of control, ITK
T1 sequence (Q08881 1-620): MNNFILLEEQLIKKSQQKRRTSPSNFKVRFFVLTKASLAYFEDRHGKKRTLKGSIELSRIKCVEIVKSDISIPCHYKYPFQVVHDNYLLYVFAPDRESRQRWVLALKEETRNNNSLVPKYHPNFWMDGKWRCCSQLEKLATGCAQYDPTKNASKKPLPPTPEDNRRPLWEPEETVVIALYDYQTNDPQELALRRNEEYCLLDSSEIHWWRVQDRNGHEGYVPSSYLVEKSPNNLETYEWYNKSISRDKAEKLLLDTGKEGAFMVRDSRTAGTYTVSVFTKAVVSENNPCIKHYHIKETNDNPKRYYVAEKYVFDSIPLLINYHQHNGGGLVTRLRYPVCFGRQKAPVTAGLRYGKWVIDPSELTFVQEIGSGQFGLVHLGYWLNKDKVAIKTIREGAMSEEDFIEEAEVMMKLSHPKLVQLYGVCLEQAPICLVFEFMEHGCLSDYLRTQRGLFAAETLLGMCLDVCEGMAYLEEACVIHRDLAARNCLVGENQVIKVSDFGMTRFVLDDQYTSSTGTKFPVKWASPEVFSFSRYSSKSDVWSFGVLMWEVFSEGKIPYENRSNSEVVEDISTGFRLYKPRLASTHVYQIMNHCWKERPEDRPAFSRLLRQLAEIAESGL

ERBB3 = ERBB3 (Homo sapiens, UniProt P21860); assay: KINOMEscan competition binding assay, ERBB3; conditions: 1.0 μM
IKZF3 = target: T2, IKZF3 (Homo sapiens, UniProt Q9UKT9); assay: IKZF3 degradation in primary cells from CLL patients (immunoblot); format: cell-based; conditions: B-lymphocytes derived from CLL patients, increasing concentrations
T2 construct: endogenous in cells; host or cells: primary B-lymphocytes from CLL patients
Method: FIG. 3F depicts primary cells from CLL patients that were treated with 1.0 μM lenalidomide and increasing concentrations of Compound 102 and levels of IKZF1 and IKZF3 transcription factors were assessed by immunoblotting.
NAMALWA and Jurkat cell lines were purchased from ATCC and cultured according to supplier guidelines at 37° C. 5% CO2 in RPMI 1640 (Gibco) supplemented with 10% fetal bovine serum and 1× penicillin-streptomycin. Wild-type and C481S BTK XLA cell lines were cultured as previously described (39). Written, informed consent was obtained prior to the collection of cells from CLL patients using the IWCLL2008 criteria. Isolation of mononuclear cells from peripheral blood was prepared using density gradient centrifugation. B-cells were then negatively selected ([…] Technologies). […]
Either anti-rabbit or anti-mouse HRP-conjugated secondary antibodies (Pierce) were incubated with the membranes for 1 h at room temperature at 1:10,000 dilutions in 5% non-fat milk in IX TBS-T. Imaging was performed using the ECL Prime chemiluminescent western blot detection reagents (Amersham) followed by visualization with the Bio-Rad ChemiDoc imaging instrument. All western blots were subsequently processed and quantified using the accompanying Bio-Rad Image Lab software. […]

C481S BTK = C481S BTK (Homo sapiens, UniProt Q06187, C481S); assay: BTK and pBTK in primary CLL patient cells after ibrutinib relapse
Chain of C481S BTK (Q06187 whole entry C481S): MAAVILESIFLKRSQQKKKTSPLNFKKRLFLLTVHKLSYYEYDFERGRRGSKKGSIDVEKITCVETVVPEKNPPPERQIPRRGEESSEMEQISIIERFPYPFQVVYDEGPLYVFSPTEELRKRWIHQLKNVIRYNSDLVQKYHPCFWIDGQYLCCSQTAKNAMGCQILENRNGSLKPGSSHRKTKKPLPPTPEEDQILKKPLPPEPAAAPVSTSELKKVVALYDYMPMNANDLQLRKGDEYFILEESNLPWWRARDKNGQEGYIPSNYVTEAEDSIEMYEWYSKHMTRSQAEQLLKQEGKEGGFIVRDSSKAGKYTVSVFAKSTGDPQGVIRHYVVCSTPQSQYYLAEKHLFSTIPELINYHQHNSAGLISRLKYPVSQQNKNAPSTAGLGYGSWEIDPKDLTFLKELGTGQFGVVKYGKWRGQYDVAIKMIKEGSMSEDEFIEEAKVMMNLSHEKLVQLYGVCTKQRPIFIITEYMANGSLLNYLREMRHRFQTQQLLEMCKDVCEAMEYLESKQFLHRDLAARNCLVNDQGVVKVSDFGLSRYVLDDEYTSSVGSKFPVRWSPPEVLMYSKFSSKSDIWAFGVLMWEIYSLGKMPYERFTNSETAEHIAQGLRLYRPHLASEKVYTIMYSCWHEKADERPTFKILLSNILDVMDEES
Method: The cell suspension was kept on ice and agitated every 10 minutes for 30 minutes, followed by centrifugation for 10 minutes at 4° C. The supernatant was then collected and frozen at −80° C. until quantification. Protein quantification was performed for each supernatant using the BCA method (Thermo Scientific). Protein from each sample was added to 2× or 6× Laemmli's Sample buffer as previously described (41). 50 μg of each sample and a protein molecular weight marker were loaded onto 10% polyacrylamide gels and electrophoresed. Transfer of the proteins and blocking of membranes were performed as previously described (40).
The blots were washed with TBS-T (Tris-buffered saline-0.05% Tween) three times for 10 minutes with constant agitation, then incubated with HRP-conjugated anti-rabbit or anti-mouse IgG (Santa Cruz Biotechnologies) diluted 1:5,000 in Blotto for 2 hours at 4° C. with constant agitation. Prior to development, the blots were again washed with TBS-T three times for 10 minutes with constant agitation. Blots were developed using chemiluminescent substrate (WesternBright by Advansta or SuperSignal by ThermoScientific) and X-ray film (GeneMate) was used to perform autoradiography. Quantification was performed on the protein bands using computer densitometry (AlphaView software).

Chain of BTK (Q06187 whole entry): as the sequence (Q06187 whole entry C481S) above, with S481C counted along it
T2 sequence (Q9UKT9 whole entry): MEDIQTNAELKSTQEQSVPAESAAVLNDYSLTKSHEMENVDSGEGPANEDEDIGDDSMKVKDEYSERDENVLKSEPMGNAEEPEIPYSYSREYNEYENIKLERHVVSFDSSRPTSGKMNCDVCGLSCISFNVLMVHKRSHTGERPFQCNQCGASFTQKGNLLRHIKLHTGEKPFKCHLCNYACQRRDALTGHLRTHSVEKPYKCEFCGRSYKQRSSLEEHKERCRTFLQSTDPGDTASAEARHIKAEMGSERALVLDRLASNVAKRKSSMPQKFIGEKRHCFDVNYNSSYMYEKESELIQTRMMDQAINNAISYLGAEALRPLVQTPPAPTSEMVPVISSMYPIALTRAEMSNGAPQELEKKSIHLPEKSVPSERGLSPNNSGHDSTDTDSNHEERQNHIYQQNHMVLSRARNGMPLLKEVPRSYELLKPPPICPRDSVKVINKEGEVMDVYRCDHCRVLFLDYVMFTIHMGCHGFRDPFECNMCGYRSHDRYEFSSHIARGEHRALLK
Chain of ERBB3 (P21860 20-1342): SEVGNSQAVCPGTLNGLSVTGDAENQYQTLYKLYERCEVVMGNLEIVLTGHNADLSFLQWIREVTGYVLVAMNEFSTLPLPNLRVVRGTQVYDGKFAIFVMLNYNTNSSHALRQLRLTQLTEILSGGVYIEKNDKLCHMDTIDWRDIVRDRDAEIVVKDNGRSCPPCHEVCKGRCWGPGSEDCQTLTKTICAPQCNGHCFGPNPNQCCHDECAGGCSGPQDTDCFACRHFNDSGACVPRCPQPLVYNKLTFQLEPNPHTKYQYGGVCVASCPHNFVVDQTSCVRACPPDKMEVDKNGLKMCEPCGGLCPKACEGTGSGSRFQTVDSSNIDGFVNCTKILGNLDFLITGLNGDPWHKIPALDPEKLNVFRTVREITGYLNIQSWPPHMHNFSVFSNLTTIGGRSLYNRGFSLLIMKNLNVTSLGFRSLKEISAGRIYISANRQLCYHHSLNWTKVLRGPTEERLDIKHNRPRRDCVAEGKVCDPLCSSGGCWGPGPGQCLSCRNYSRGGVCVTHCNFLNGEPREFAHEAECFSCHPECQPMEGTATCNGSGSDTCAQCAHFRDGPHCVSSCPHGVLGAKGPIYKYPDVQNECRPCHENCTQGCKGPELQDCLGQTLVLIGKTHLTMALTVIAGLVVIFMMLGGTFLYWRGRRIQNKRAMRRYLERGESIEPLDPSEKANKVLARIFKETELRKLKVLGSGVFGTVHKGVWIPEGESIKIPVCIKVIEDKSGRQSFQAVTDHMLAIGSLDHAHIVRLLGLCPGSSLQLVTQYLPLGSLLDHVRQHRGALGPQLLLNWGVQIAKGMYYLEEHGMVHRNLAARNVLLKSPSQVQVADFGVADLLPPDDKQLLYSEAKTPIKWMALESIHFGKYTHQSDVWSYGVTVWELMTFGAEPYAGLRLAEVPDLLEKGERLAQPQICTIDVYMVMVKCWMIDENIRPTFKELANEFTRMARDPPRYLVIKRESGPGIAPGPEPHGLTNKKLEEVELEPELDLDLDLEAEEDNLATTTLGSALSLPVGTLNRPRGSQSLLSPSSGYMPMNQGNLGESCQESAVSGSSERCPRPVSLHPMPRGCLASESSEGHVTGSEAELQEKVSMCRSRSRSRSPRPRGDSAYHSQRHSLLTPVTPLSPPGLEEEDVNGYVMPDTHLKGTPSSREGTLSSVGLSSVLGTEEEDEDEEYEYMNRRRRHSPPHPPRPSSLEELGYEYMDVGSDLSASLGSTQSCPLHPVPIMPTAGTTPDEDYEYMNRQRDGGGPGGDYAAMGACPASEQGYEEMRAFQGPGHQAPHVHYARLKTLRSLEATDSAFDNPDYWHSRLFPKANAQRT

Nc1ncnc2c1c(-c1ccc(Oc3ccccc3)cc1)nn2C1CCN(CCOCCOCC(=O)Nc2ccc3c(c2)C(=O)N(C2CCC(=O)NC2=O)C3=O)CC1 (centres unmarked) [Compound 102, 2-[2-[2-[4-[4-amino-3-(4-phenoxyphenyl)pyrazolo[3,4-d]pyrimidin-1-yl]-1-piperidyl]ethoxy]ethoxy]-N-[2-(2,6-dioxo-3-piperidyl)-1,3-dioxo-isoindolin-5-yl]acetamide]
time at which BTK is fully degraded (BTK; 250 nM): 4 h | time after which half of the total BTK is degraded (BTK; 250 nM, vs matched vehicle-treated time point, exponential fit): approximately 50 minutes | BTK degradation after pre-treatment with MLN-4924 (BTK; MLN-4924 1 μM 2.5 h, then 250 nM PROTAC 4 h): rescue of BTK levels | DC50 (BTK; concentration needed to degrade 50% of the total pool of BTK, read-out: DC50): 9.1 nM | BTK degradation after pre-treatment with epoxomicin (BTK; epoxomicin 1 μM 2.5 h, then 250 nM PROTAC 4 h): rescue of BTK levels; also recorded: did not result in BTK degradation | BTK degradation after pre-treatment with excess ibrutinib (BTK; ibrutinib 25 μM 2.5 h, then 250 nM PROTAC 4 h): rescued BTK levels | Max (BTK; maximal BTK degradation, at 250 nM): >99% | BTK degradation after pre-treatment with excess pomalidomide (BTK; pomalidomide 25 μM 2.5 h, then 250 nM PROTAC 4 h): rescued BTK levels | hook-effect (increase in BTK levels at high PROTAC concentration) (BTK; up to 2.5 μM, 24 h): without observation and No and no significant increases in BTK levels and (No | remaining binding at 1 µM (ITK): > 80% | KINOMEscan displacement of competitive probe bound to ERBB3 (ERBB3): fully displaced the competitive probe | IKZF3 degradation (IKZF3): No degradation of either protein was observed | reduction of active, Y223 phosphorylated BTK (C481S BTK; after relapse (C481S BTK), 1 μM): retained its ability to reduce the pool of active, Y223 phosphorylated BTK | degradation of C481S BTK (C481S BTK; relapse primary patient sample, 1 μM 24 h): able to degrade
